Measured values: patent publication US11021457B2, “Class of isoindolone-imide ring-1,3-dione-2-ene compounds, composition and use thereof” (WIGEN BIOMEDICINE TECHNOLOGY (SHANGHAI) CO., LTD., priority 2017, dated 2021)
Like-named read-outs stand apart in the source and are kept apart here.

Key:
[1] = test system: SU-DHL6; assay: Inhibition of tumor cell proliferation, CellTiter-Glo, SU-DHL6; assay type: cell-based; settings: compound concentration 50 μM, 72 hours; for cell survival rate (% of control) at 50 µM: Homo sapiens, SU-DHL-6, read-out: Inhibitory activity against proliferation (cell survival rate) SU-DHL6
Procedure, shortened: (§1)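 Luminescent ATP read-out (CellTiter-Glo) after 72 hours gave survival relative to untreated wells, corrected for blank. Activity categories were assigned from survival at 50 μM: ≤30% high, >30-60% moderate, 60-<90% low.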

[2] = test system: RPMI-8226; assay: Inhibition of tumor cell proliferation, CellTiter-Glo, RPMI-8226; assay type: cell-based; settings: compound concentration 50 μM, 72 hours; for cell survival rate (% of control) at 50 µM: Homo sapiens, RPMI-8226, read-out: Inhibitory activity against proliferation (cell survival rate) RPMI-8226
Procedure, shortened: as §1

[3] = test system: A549; assay: Inhibition of tumor cell proliferation, CellTiter-Glo, A549; assay type: cell-based; settings: compound concentration 50 μM, 72 hours; for cell survival rate (% of control) at 50 µM: Homo sapiens, A549, read-out: Inhibitory activity against proliferation (cell survival rate) A549
Procedure, shortened: as §1

[4] = test system: K562; assay: Inhibition of tumor cell proliferation, CellTiter-Glo, K562; assay type: cell-based; settings: compound concentration 50 μM, 72 hours; for cell survival rate (%) at 50 µM: Homo sapiens, K562, read-out: Inhibitory activity against proliferation (cell survival rate) K562
Procedure, shortened: as §1

[5] = biological target: LC3B (Homo sapiens (Human), UniProt Q9GZQ8); assay: Fluorescence polarization experiment targeting LC3B (GST-LC3B with FITC-labeled peptide)
[6] = test system: MDA-MB-453; assay: Inhibition of tumor cell proliferation, CellTiter-Glo, MDA-MB-453; assay type: cell-based; settings: compound concentration 50 μM, 72 hours; for cell survival rate (%) at 50 µM: Homo sapiens, MDA-MB-453, read-out: Inhibitory activity against proliferation (cell survival rate) MDA-MB-453
Procedure, shortened: as §1

[7] = test system: BxPC-3; assay: Inhibition of tumor cell proliferation, CellTiter-Glo, BxPC-3; assay type: cell-based; settings: compound concentration 50 μM, 72 hours; for cell survival rate (%) at 50 µM: Homo sapiens, BXPC-3, read-out: Inhibitory activity against proliferation (cell survival rate) BxPC-3
Procedure, shortened: as §1

[8] = GST-LC3B 180 nM, FITC-labeled peptide 18 nM, 25° C.

## O=C1CC(c2ccccc2)CC(=O)C1=CNCCN1CCN(C(=O)N2C(=O)CCC(N3C(=O)c4ccccc4C3=O)C2=O)CC1 (centres unmarked) [Compound 101]
[1]
  Inhibitory activity against proliferation (cell survival rate) SU-DHL6: ++ (30<survival rate (%)≤60)
[2]
  Inhibitory activity against proliferation (cell survival rate) RPMI-8226: +++ (survival rate (%)≤30)
[3]
  Inhibitory activity against proliferation (cell survival rate) A549: +++ (survival rate (%)≤30)
[4]
  Inhibitory activity against proliferation (cell survival rate) K562: +++ (survival rate (%)≤30)
[5]; [8]
  IC50: 15 to 100 µM
[6]
  Inhibitory activity against proliferation (cell survival rate) MDA-MB-453: ++ (30<survival rate (%)≤60)
[7]
  Inhibitory activity against proliferation (cell survival rate) BxPC-3: + (60≤survival rate (%)<90)

## CCCNC(=O)C1CC(=O)C(=CNc2cccc3c2CN(C2CCC(=O)NC2=O)C3=O)C(=O)C1 (centres unmarked) [Compound 114]
[1]
  cell survival rate (% of control) at 50 µM: 30 to 60%
[2]
  cell survival rate (% of control) at 50 µM: 60 to 90%
[3]
  cell survival rate (% of control) at 50 µM: 30 to 60%
[4]
  cell survival rate (%) at 50 µM: 30 to 60%
[5]
  IC50: 100 to 1000 µM
[6]
  cell survival rate (%) at 50 µM: 60 to 90%
[7]
  cell survival rate (%) at 50 µM: 60 to 90%

## CCC(=O)/C(=C/Nc1cccc2c1CN(C1CCC(=O)NC1=O)C2=O)C(=O)CCc1ccccc1 (centres unmarked) [Compound 128]
[1]
  Inhibitory activity against proliferation (cell survival rate) SU-DHL6: +++ (survival rate (%)≤30)
[2]
  Inhibitory activity against proliferation (cell survival rate) RPMI-8226: +++ (survival rate (%)≤30)
[3]
  Inhibitory activity against proliferation (cell survival rate) A549: +++ (survival rate (%)≤30)
[4]
  Inhibitory activity against proliferation (cell survival rate) K562: +++ (survival rate (%)≤30)
[5]; [8]
  IC50: 100 to 1000 µM
[6]
  Inhibitory activity against proliferation (cell survival rate) MDA-MB-453: +++ (survival rate (%)≤30)
[7]
  Inhibitory activity against proliferation (cell survival rate) BxPC-3: + (60≤survival rate (%)<90)

## O=C1CCC(N2Cc3c(NC=C4C(=O)CCCC4=O)cccc3C2=O)C(=O)N1 (centres unmarked) [Compound 132]
[1]
  cell survival rate (% of control) at 50 µM: ≤ 30%
[2]
  cell survival rate (% of control) at 50 µM: ≤ 30%
[3]
  cell survival rate (% of control) at 50 µM: 60 to 90%
[4]
  cell survival rate (%) at 50 µM: 30 to 60%
[5]
  IC50: 100 to 1000 µM
[6]
  cell survival rate (%) at 50 µM: 60 to 90%
[7]
  cell survival rate (%) at 50 µM: 30 to 60%

## O=C1CCC(N2Cc3c(NC=C4C(=O)CC(c5cc(C(F)(F)F)ccc5F)CC4=O)cccc3C2=O)C(=O)N1 (centres unmarked) [Compound 140]
[1]
  Inhibitory activity against proliferation (cell survival rate) SU-DHL6: +++ (survival rate (%)≤30)
[2]
  Inhibitory activity against proliferation (cell survival rate) RPMI-8226: +++ (survival rate (%)≤30)
[3]
  Inhibitory activity against proliferation (cell survival rate) A549: +++ (survival rate (%)≤30)
[4]
  Inhibitory activity against proliferation (cell survival rate) K562: +++ (survival rate (%)≤30)
[5]; [8]
  IC50: < 3 µM
[6]
  Inhibitory activity against proliferation (cell survival rate) MDA-MB-453: ++ (30<survival rate (%)≤60)
[7]
  Inhibitory activity against proliferation (cell survival rate) BxPC-3: ++ (30<survival rate (%)≤60)

## O=C1CCC(N2Cc3c(NC=C4C(=O)CC(c5c(C(F)(F)F)ccc(Cl)c5Cl)CC4=O)cccc3C2=O)C(=O)N1 (centres unmarked) [Compound 141]
[1]
  Inhibitory activity against proliferation (cell survival rate) SU-DHL6: +++ (survival rate (%)≤30)
[2]
  Inhibitory activity against proliferation (cell survival rate) RPMI-8226: ++ (30<survival rate (%)≤60)
[3]
  Inhibitory activity against proliferation (cell survival rate) A549: +++ (survival rate (%)≤30)
[4]
  Inhibitory activity against proliferation (cell survival rate) K562: ++ (30<survival rate (%)≤60)
[5]; [8]
  IC50: < 3 µM
[6]
  Inhibitory activity against proliferation (cell survival rate) MDA-MB-453: +++ (survival rate (%)≤30)
[7]
  Inhibitory activity against proliferation (cell survival rate) BxPC-3: + (60≤survival rate (%)<90)

## O=C1CCC(N2Cc3c(NC=C4C(=O)CC(c5c(C(F)(F)F)ccc(Cl)c5F)CC4=O)cccc3C2=O)C(=O)N1 (centres unmarked) [Compound 142]
[1]
  Inhibitory activity against proliferation (cell survival rate) SU-DHL6: +++ (survival rate (%)≤30)
[2]
  Inhibitory activity against proliferation (cell survival rate) RPMI-8226: +++ (survival rate (%)≤30)
[3]
  Inhibitory activity against proliferation (cell survival rate) A549: + (60≤survival rate (%)<90)
[4]
  Inhibitory activity against proliferation (cell survival rate) K562: +++ (survival rate (%)≤30)
[5]; [8]
  IC50: < 3 µM
[6]
  Inhibitory activity against proliferation (cell survival rate) MDA-MB-453: +++ (survival rate (%)≤30)
[7]
  Inhibitory activity against proliferation (cell survival rate) BxPC-3: + (60≤survival rate (%)<90)

## COc1cc(Br)c(C2CC(=O)C(=CNc3cccc4c3CN(C3CCC(=O)NC3=O)C4=O)C(=O)C2)cc1OC (centres unmarked) [Compound 143]
[1]
  Inhibitory activity against proliferation (cell survival rate) SU-DHL6: +++ (survival rate (%)≤30)
[2]
  Inhibitory activity against proliferation (cell survival rate) RPMI-8226: ++ (30<survival rate (%)≤60)
[3]
  Inhibitory activity against proliferation (cell survival rate) A549: +++ (survival rate (%)≤30)
[4]
  Inhibitory activity against proliferation (cell survival rate) K562: ++ (30<survival rate (%)≤60)
[5]; [8]
  IC50: < 3 µM
[6]
  Inhibitory activity against proliferation (cell survival rate) MDA-MB-453: +++ (survival rate (%)≤30)
[7]
  Inhibitory activity against proliferation (cell survival rate) BxPC-3: + (60≤survival rate (%)<90)

## O=C1CCC(N2Cc3c(NC=C4C(=O)CC(c5cc(C(F)(F)F)ccc5Cl)CC4=O)cccc3C2=O)C(=O)N1 (centres unmarked) [Compound 144]
[1]
  Inhibitory activity against proliferation (cell survival rate) SU-DHL6: +++ (survival rate (%)≤30)
[2]
  Inhibitory activity against proliferation (cell survival rate) RPMI-8226: +++ (survival rate (%)≤30)
[3]
  Inhibitory activity against proliferation (cell survival rate) A549: + (60≤survival rate (%)<90)
[4]
  Inhibitory activity against proliferation (cell survival rate) K562: +++ (survival rate (%)≤30)
[5]; [8]
  IC50: < 3 µM
[6]
  Inhibitory activity against proliferation (cell survival rate) MDA-MB-453: +++ (survival rate (%)≤30)
[7]
  Inhibitory activity against proliferation (cell survival rate) BxPC-3: + (60≤survival rate (%)<90)

## O=C1CCC(N2Cc3c(NC=C4C(=O)CC(c5ccc(Cl)cc5F)CC4=O)cccc3C2=O)C(=O)N1 (centres unmarked) [Compound 145]
[1]
  Inhibitory activity against proliferation (cell survival rate) SU-DHL6: +++ (survival rate (%)≤30)
[2]
  Inhibitory activity against proliferation (cell survival rate) RPMI-8226: ++ (30<survival rate (%)≤60)
[3]
  Inhibitory activity against proliferation (cell survival rate) A549: +++ (survival rate (%)≤30)
[4]
  Inhibitory activity against proliferation (cell survival rate) K562: ++ (30<survival rate (%)≤60)
[5]; [8]
  IC50: < 3 µM
[6]
  Inhibitory activity against proliferation (cell survival rate) MDA-MB-453: +++ (survival rate (%)≤30)
[7]
  Inhibitory activity against proliferation (cell survival rate) BxPC-3: + (60≤survival rate (%)<90)

## O=C1CCC(N2Cc3c(NC=C4C(=O)CC(c5cccc(Cl)c5F)CC4=O)cccc3C2=O)C(=O)N1 (centres unmarked) [Compound 146]
[1]
  Inhibitory activity against proliferation (cell survival rate) SU-DHL6: +++ (survival rate (%)≤30)
[2]
  Inhibitory activity against proliferation (cell survival rate) RPMI-8226: +++ (survival rate (%)≤30)
[3]
  Inhibitory activity against proliferation (cell survival rate) A549: + (60≤survival rate (%)<90)
[4]
  Inhibitory activity against proliferation (cell survival rate) K562: +++ (survival rate (%)≤30)
[5]; [8]
  IC50: < 3 µM
[6]
  Inhibitory activity against proliferation (cell survival rate) MDA-MB-453: +++ (survival rate (%)≤30)
[7]
  Inhibitory activity against proliferation (cell survival rate) BxPC-3: + (60≤survival rate (%)<90)
